Measured values from patent US20250213546A1, “TREATING CANCER WITH SMALL MOLECULES THAT INHIBIT ACSS-2” (DREXEL UNIVERSITY, priority 2022, published 2025).
Like-named read-outs stand apart in the source and are kept apart here.

Columns and labels:
hACSS-2 = hACSS-2 (Homo sapiens (Human), UniProt Q9NR19); assay: Surface plasmon resonance (SPR) binding to immobilized hACSS-2
Protocol: SPR characterization. All binding assays were performed on a ProteOn XPR36 SPR Protein Interaction Array System (Bio-Rad Laboratories, Hercules, CA, USA). The instrument temperature was set at 25° C. for all kinetic analyses. ProteOn GLH sensor chips were preconditioned with two short pulses each (10 s) of 50 mM NaOH, 100 mM HCl, and 0.5% sodium dodecyl […]. Then the system was equilibrated with running buffer (1×PBS pH 7.4, 3% DMSO and 0.005% polysorbate 20). The surface of a GLH sensor chip was activated with a 1:100 dilution of a 1:1 mixture of 1-ethyl-3-(3-dimethylaminopropyl) carbodiimide hydrochloride (0.2 M) and sulfo-N-hydroxysuccinimide (0.05 M). […] Then, after unreacted protein had been washed out, excess active ester groups on the sensor surface were capped by a 5 min injection of 1M ethanolamine HCl (pH 8.0) at a flow rate of 5 μL/min. A reference surface was similarly created by immobilizing a nonspecific protein (IgG b12 anti-HIV-1 gp120; was obtained through the NIH AIDS Reagent Program, Division of AIDS, NIAID, NIH: Anti-HIV-1 gp120 Monoclonal (IgG1 b12) from Dr. Dennis Burton and Carlos Barbas) and was used as a background to correct nonspecific binding. Serial dilutions of hACSS-2 inhibitors were then prepared in the running buffer and injected at a flow rate of 100 μL/min, for a 50 s association phase, followed by up to a 5 min dissociation phase using the “one-shot kinetics” capability of the ProteOn instrument. Data were analyzed using the ProteOn Manager Software version 3.0 (Bio-Rad). The responses from the reference flow cell were subtracted to account for the nonspecific binding and injection artifacts. Experimental data were fitted to a simple 1:1 binding model. Experiments were performed in triplicate to detect kinetic and equilibrium dissociation constants (KD).
Overproduction of hACSS-2 was achieved using a prokaryotic expression system. […] The bacterial expressions were then spun down, the supernatant discarded, and the pellets resuspended. After the cells were lysed via sonication, the sample was subjected to ultracentrifugation, and the clarified lysate was applied to a Talon cobalt resin affinity column (Clonetech Laboratories, Mountain View, CA). The bound protein was eluted from the column using 1×PBS pH 7.4 with 0.3 M imidazole, then dialyzed overnight into 20 mM Tris-HCl pH 8.0, concentrated to 10 mg/mL, aliquoted, and stored at −80° C.

[1] = Human liver microsome stability; type: in vitro ADME; details: 60 min, given as fraction
Protocol: (§1) Metabolic Stability and Plasma Stability. Test compound Working solution: 5 μL of compound stock solution (10 mM in dimethyl sulfoxide (DMSO)) were diluted with 495 μL of DMSO (Working solution concentration: 100 μM, 100% DMSO). Propantheline bromide Working solution: 5 μL of Propantheline bromide stock solution (10 mM in H2O) were diluted with 495 μL of H2O (Working solution concentration: 100 μM, 100% H2O)

MDR1 = assay: in vitro; details: dog
Protocol: (§2) MDCKI MDR1 cell permeability assessment was performed to mimic the blood brain barrier. MDR1-MDCK I cells were seeded onto […] (PET) in 96-well Corning insert systems at 2.5×10^5 cells/mL until to 4-7 days for confluent cell monolayer formation. The transport buffer in the study was HBSS with 10.0 mM HEPES at pH 7.40+0.05. Test compounds were tested at 2.00 μM bi-directionally in duplicate. […] Final DMSO concentration was adjusted to less than 1%. The plate was incubated for 1.5 hours in CO2 incubator at 37±1° C., with 5% CO2 at saturated humidity without shaking. All samples after mixed with acetonitrile containing internal standard were centrifuged at 3220×g for 10 min. For all samples, 150 μL supernatant solution was diluted with 150 μL ultra-pure water for LC-MS/MS analysis. In addition, the efflux ratio of each compound was also determined. Test and reference compounds were quantified by LC-MS/MS analysis based on the peak area ratio of analyte/IS. After transport assay, Lucifer yellow rejection assay are applied to determine the cell monolayer integrity. Buffers are removed from both apical and basolateral chambers, followed by the addition of 75 μL of 100 μM lucifer yellow in transport buffer and 250 μL transport buffer in apical and basolateral chambers, respectively. […] After 30 minutes incubation, 20 μL of lucifer yellow samples are taken from the apical sides, followed by the addition of 60 μL of Transport Buffer. And then 80 μL of lucifer yellow samples are taken from the basolateral sides.
(§3) The apparent permeability coefficient Papp (cm/s) was calculated using the equation: Papp=(dCr/dt)×Vr/(A×C0) where dCr/dt is the cumulative concentration of compound in the receiver chamber as a function of time (μM/s); Vr is the solution volume in the receiver chamber (0.075 mL on the apical side, 0.25 mL on the basolateral side); A is the surface area for the transport, i.e. 0.0804 cm^2 for the area of the monolayer; CO is the initial concentration in the donor chamber (μM). […] Percent of lucifer yellow in basolateral well is calculated using the equation: Where RFUApical and RFUBasolateral are the relative fluorescence unit values of lucifer yellow in the apical and basolateral wells, respectively; VApical and VBasolateral are the volume of apical and basolateral wells (0.075 mL and 0.25 mL), respectively. The % Lucifer Yellow should be less than 1.0.

MDR1-MDCK I cells = assay: in vitro; details: dog, MDCK-MDR1, 1.5 h, 2 µM, pH 7.4
Protocol: as §2, §3

Human plasma stability = type: in vitro ADME; details: both sexes, 37° C., up to 120 min, read-out: Human Plasma Stability T1/2
Protocol: as §1
Human plasma from 3 males and 3 females was obtained. Heparin was used as the anticoagulant. The pooled frozen plasma was thawed in a water bath at 37° C. prior to experiment. Plasma was centrifuged at 4000 rpm for 5 min and the clots were removed if any. Using an Apricot automation workstation, 98 μL/well of blank plasma were added to all 96-well reaction plates. (Blank, T0, T10, T30, T60 and T120). The appointed incubation time points are T0 (0 min), Tn (n=0, 10, 30, 60, 120 min). An Apricot automation workstation was used to add 2 μL/well of working solution (100 μM) to all reaction plates except Blank. (T0, T10, T30, T60 and T120). All reaction plates containing mixtures of compound and plasma were incubated at 37° C. in water bath. The reaction plates were incubated at 37° C., and timer was started. At the end of incubation, 500 μL of stop solution was added and mixed (200 ng/mL tolbutamide and 200 ng/ml labetalol in ACN) to precipitate protein. Each plate was sealed and shaken for 20 minutes. After shaking, each plate was centrifuged at 4000 rpm and 4° C. for 20 minutes. After centrifugation, an Apricot automation workstation was used to transfer 150 μL of supernatant from each reaction plate to its corresponding bioanaylsis plate. Each bioanalysis plate was sealed and shaken for 10 minutes prior to LC-MS/MS analysis. The % remaining of test compound after incubation in plasma was calculated using following equation: Remaining=100×(PAR at appointed incubation time/PAR at T0 time) where PAR is the peak area ratio of analyte versus internal standard (IS).

hACSS-2, sequence (Q9NR19 whole entry): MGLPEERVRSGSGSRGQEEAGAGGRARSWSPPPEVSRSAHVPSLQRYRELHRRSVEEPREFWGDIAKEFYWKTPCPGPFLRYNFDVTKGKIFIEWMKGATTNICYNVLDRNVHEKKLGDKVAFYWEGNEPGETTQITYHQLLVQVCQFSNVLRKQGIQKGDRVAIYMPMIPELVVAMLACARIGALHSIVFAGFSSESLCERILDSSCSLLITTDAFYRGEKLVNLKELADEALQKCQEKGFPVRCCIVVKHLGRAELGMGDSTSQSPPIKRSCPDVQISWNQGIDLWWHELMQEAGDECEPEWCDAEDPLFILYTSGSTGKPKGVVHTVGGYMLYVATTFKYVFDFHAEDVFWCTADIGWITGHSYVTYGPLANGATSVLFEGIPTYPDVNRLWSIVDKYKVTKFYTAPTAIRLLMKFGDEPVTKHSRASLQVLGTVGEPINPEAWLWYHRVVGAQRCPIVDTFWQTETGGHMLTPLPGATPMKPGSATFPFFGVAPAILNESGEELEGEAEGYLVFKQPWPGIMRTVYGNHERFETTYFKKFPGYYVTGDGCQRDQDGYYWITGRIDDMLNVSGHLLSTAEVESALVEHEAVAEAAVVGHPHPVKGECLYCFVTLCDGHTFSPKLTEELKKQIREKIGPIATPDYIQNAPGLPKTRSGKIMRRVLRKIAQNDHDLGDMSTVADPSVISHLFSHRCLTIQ

N[C@H](C(=O)N1CCCC(c2ccccc2)(c2ccccc2)C1)C1CC1 [AD-8007] gave a koff (hACSS-2; 1:1 binding model, mean, n = 3) of 0.547 s⁻¹, a kon (hACSS-2; 1:1 binding model, mean, n = 3) of 4790 M⁻¹ s⁻¹ and a Kd (hACSS-2; Langmuir isotherm equilibrium fit, mean, n = 3, read-out: KD [μM] equilibrium) of 117 µM. For the same compound, the Kd (hACSS-2; global fit, mean, n = 3, read-out: KD [μM] kinetic/global) was 149 µM, the Kd (hACSS-2; read-out: Affinity (KD in μM) for hACSS-2 mean ± SD (n = 3), SPR, one site binding model isotherm, triplicate) was 89 ± 20 µM and the “Human Liver Microsome Stability Remaining(T = 60 min)” value [1] was 0.7723. For the same compound, the “Human Liver Microsome Stability Remaining(NCF = 60 min)” value ([1]; NCF) was 0.9563, the efflux ratio at 1.5 h, 2 µM (MDR1; MDCK-MDR1, pH 7.4) was 8.96 and the recovery at 1.5 h, 2 μM (MDR1; MDCK-MDR1, pH 7.4, Mean % Solution Recovery A to B) was 81.3%. For the same compound, the recovery at 1.5 h, 2 μM (MDR1; MDCK-MDR1, pH 7.4, Mean % Solution Recovery B to A) was 97%, the “Note (efflux / BBB assessment)” value (MDR1-MDCK I cells) was “AD 8007 has a low efflux ratio” and the half-life at 2 µM (Human plasma stability) was > 4.82 h.
